Reference: publication PMC12888861, “Antibacterial activity of enmetazobactam against Acinetobacter spp.: a molecular dissection of mechanism of action and resistance determinants” (Antimicrobial Agents and Chemotherapy, 2025)

Test system: carbapenem-resistant A. baumannii (CRAB) isolates (n = 67)
Assay: MIC, broth microdilution (EUCAST), carbapenem-resistant A. baumannii isolates
Assay type: cell-based, Acinetobacter baumannii
Settings: ETZ fixed 8 mg/L in combinations; for MIC: Acinetobacter baumannii; for MIC distribution 0.12: cumulative share of CRAB isolates (n = 67) at MIC 0.12 mg/L; for MIC distribution 0.25: cumulative share of CRAB isolates (n = 67) at MIC 0.25 mg/L; for MIC distribution 0.5: cumulative share of CRAB isolates (n = 67) at MIC 0.5 mg/L; for MIC distribution 1: cumulative share of CRAB isolates (n = 67) at MIC 1 mg/L; for MIC distribution 2: cumulative share of CRAB isolates (n = 67) at MIC 2 mg/L; for MIC distribution 4: cumulative share of CRAB isolates (n = 67) at MIC 4 mg/L; for MIC distribution 8: cumulative share of CRAB isolates (n = 67) at MIC 8 mg/L; for MIC distribution 16: cumulative share of CRAB isolates (n = 67) at MIC 16 mg/L; for MIC distribution 32: cumulative share of CRAB isolates (n = 67) at MIC 32 mg/L; for MIC distribution 64: cumulative share of CRAB isolates (n = 67) at MIC 64 mg/L
Excerpt: The bacterial strains used in this study comprised 208 clinical isolates from the Spanish National Acinetobacter spp. 2020 Multicenter Collection, which was previously characterized in detail by our research group, including whole-genome sequencing, phylogenetics studies, clonal dynamics, and resistance mechanisms ([2], [29]). Additionally, a collection of A. baumannii ATCC 17978 transformants coding the blaOXA-23, blaOXA-24/40, blaOXA-51, blaOXA-58, blaOXA-143, and blaOXA-201 genes, previously constructed and described by our group ([30]), was used to determine the activity of enmetazobactam against strains carrying the main CHDLs of A. baumannii.
The antimicrobial susceptibility of the 208 Acinetobacter spp. isolates was assessed using the broth microdilution method, as described in the European Committee on Antimicrobial Susceptibility Testing (EUCAST) v.15 guidelines (http://www.eucast.org/clinical_breakpoints). […] MICs for enmetazobactam alone were assessed as well. […] Subsequently, MIC testing was also conducted with a collection of A. baumannii ATCC 17978 transformants expressing clinically relevant OXA-like carbapenemase genes.
The A. baumannii ATCC 19606 strain was used as the reference strain in all susceptibility experiments, in duplicate assays. Antibiotics were purchased from Sigma-Aldrich, except enmetazobactam and durlobactam, which were obtained from Advanz Pharma and MedChemExpress, respectively.

[1] = isolate Ab56, ST 1, ADC-75, OXA-69, OXA-23
[2] = isolate Ab83, ST 25, ADC-5, OXA-64, OXA-23
[3] = isolate Ab109, ST 1, ADC-75, OXA-69, OXA-23
[4] = isolate Ab133, ST 2, ADC-30, OXA-66, OXA-58, TEM-12
[5] = isolate Ab134, ST 2, ADC-30, OXA-66, OXA-58, TEM-12
[6] = isolate Ab137, ST 85, ADC-2, OXA-94, OXA-23
[7] = isolate Ab138, ST 745, ADC-30, OXA-66, OXA-58
[8] = isolate Ab140, ST 85, ADC-2, OXA-94, OXA-23
[9] = isolate Ab141, ST 745, ADC-30, OXA-66, OXA-58
[10] = isolate Ab144, ST 745, ADC-30, OXA-66, OXA-58
[11] = isolate Ab169, ST 2, ADC-30, OXA-66, OXA-23
[12] = isolate Ab171, ST 2, ADC-30, OXA-66, OXA-23
[13] = isolate Ab173, ST 2, ISAba1-ADC-30, OXA-66, OXA-23
[14] = isolate Ab174, ST 2, ADC-30, OXA-66, OXA-23
[15] = isolate Ab179, ST 2, ADC-30, OXA-66, OXA-23
[16] = isolate Ab180, ST 2, ADC-30, OXA-66, OXA-24/40
[17] = isolate Ab181, ST 2, ADC-30, OXA-66, OXA-23
[18] = isolate Ab182, ST 2, ADC-30, OXA-66, OXA-23
[19] = isolate Ab183, ST 2, ADC-30, OXA-66, OXA-23
[20] = isolate Ab184, ST 2, ADC-30, OXA-66, OXA-23
[21] = isolate Ab186, ST 2, ADC-30, OXA-66, OXA-23
[22] = isolate Ab191, ST 2, ADC-30, OXA-66, OXA-23
[23] = isolate Ab192, ST 2, ADC-30, OXA-66, OXA-23
[24] = isolate Ab194, ST 2, ADC-30, OXA-66, OXA-23
[25] = isolate Ab199, ST 2, ADC-30, OXA-66, OXA-23
[26] = isolate Ab201, ST 2, ADC-30, OXA-66, OXA-23
[27] = isolate Ab204, ST 2, ADC-30, OXA-66, OXA-23

Row | Structure (SMILES) | MIC [1] [µg/mL] | MIC [2] [µg/mL] | MIC [3] [µg/mL] | MIC [4] [µg/mL] | MIC [5] [µg/mL] | MIC [6] [µg/mL] | MIC [7] [µg/mL] | MIC [8] [µg/mL] | MIC [9] [µg/mL] | MIC [10] [µg/mL] | MIC [11] [µg/mL] | MIC [12] [µg/mL] | MIC [13] [µg/mL] | MIC [14] [µg/mL] | MIC [15] [µg/mL] | MIC [16] [µg/mL] | MIC [17] [µg/mL] | MIC [18] [µg/mL] | MIC [19] [µg/mL] | MIC [20] [µg/mL] | other results
1 | CO/N=C(\C(=O)N[C@@H]1C(=O)N2C(C(=O)[O-])=C(C[N+]3(C)CCCC3)CS[C@H]12)c1csc(N)n1 [cefepime] | 32 | 64 | 64 | 32 | 16 | 64 | 32 | 32 | 32 | 32 | 32 | 32 | ≥ 128 | 32 | 64 | 16 | 32 | 16 | 32 | ≥ 128 | MIC [21]: 32 µg/mL; MIC [22]: 32 µg/mL; MIC [23]: 32 µg/mL; MIC [24]: 32 µg/mL; MIC [25]: 32 µg/mL; MIC [26]: 64 µg/mL; MIC [27]: 16 µg/mL; MIC distribution 0.12: 0; MIC distribution 0.25: 0; MIC distribution 0.5: 0; MIC distribution 1: 0; MIC distribution 2: 0; MIC distribution 4: 1.5; MIC distribution 8: 3.0; MIC distribution 16: 22.4; MIC distribution 32: 70.1; MIC distribution 64: 97.0
2 | C[C@@H](O)[C@H]1C(=O)N2C(C(=O)O)=C(SCCN=CN)C[C@H]12 [imipenem] | 16 | 32 | 16 | 16 | 16 | 32 | 32 | 32 | 16 | 32 | 32 | 16 | 32 | 64 | 32 | 64 | 32 | 16 | 16 | 32 | MIC [21]: 32 µg/mL; MIC [22]: 64 µg/mL; MIC [23]: 64 µg/mL; MIC [24]: 32 µg/mL; MIC [25]: 32 µg/mL; MIC [26]: 32 µg/mL; MIC [27]: 16 µg/mL; MIC distribution 0.12: 0; MIC distribution 0.25: 0; MIC distribution 0.5: 0; MIC distribution 1: 0; MIC distribution 2: 0; MIC distribution 4: 0; MIC distribution 8: 9.0; MIC distribution 16: 34.3; MIC distribution 32: 79.1; MIC distribution 64: 100; MIC distribution ≤0.06 (cumulative share of CRAB isolates (n = 67) at MIC ≤0.06 mg/L): 0
